ChEMBL document CHEMBL1201862, “PubChem BioAssay data set” (2004)
Where “and” joins values, the source holds several entries; their conditions need not be identical. Equal entries are not always repeated. Calls of active or inactive are those of the source.

Tests used:
[1] = molecular target: T1, Type-1 angiotensin II receptor (Homo sapiens, UniProt P30556); experiment: agonist activity at AGTR1 – cell-based, uHTS hits, selectivity assay for APJ receptor agonist project, dose response (AID 488865); format: functional;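 further: beta-arrestin recruitment to AT1 measured by enzyme fragment complementation luminescence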
T1 sequence (P30556 whole entry): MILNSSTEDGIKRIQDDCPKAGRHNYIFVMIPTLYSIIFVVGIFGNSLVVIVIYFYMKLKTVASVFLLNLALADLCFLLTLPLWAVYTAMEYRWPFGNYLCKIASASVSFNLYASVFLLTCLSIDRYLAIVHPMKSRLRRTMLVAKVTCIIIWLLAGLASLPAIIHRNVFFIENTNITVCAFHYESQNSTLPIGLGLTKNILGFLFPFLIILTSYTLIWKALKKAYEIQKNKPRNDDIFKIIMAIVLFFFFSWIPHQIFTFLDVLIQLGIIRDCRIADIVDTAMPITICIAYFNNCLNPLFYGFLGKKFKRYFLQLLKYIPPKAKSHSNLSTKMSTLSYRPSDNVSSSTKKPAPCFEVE

[2] = molecular target: T2, Alkaline phosphatase, tissue-nonspecific isozyme (Homo sapiens, UniProt P05186); experiment: potency against alkaline phosphatase TNAP – biochemical, luminescent, dose response, SAR follow-up (AID 1056)
T2 sequence (P05186 whole entry): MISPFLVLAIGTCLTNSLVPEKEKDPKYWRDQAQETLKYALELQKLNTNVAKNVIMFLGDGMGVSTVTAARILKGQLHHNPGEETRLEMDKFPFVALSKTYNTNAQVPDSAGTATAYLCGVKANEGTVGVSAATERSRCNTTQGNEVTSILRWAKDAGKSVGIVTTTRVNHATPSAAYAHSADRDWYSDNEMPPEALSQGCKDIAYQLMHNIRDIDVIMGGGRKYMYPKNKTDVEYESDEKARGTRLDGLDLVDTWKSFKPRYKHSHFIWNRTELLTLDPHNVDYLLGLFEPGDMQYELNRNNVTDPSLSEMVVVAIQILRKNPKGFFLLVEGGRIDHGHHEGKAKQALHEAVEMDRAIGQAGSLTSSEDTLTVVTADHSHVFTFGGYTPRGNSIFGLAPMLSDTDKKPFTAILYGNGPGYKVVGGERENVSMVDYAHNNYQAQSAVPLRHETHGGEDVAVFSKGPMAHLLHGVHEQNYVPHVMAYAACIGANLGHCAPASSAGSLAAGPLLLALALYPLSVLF

[3] = molecular target: Glyceraldehyde-3-phosphate dehydrogenase (Homo sapiens, UniProt P04406)
Sequence of Glyceraldehyde-3-phosphate dehydrogenase (P04406 whole entry): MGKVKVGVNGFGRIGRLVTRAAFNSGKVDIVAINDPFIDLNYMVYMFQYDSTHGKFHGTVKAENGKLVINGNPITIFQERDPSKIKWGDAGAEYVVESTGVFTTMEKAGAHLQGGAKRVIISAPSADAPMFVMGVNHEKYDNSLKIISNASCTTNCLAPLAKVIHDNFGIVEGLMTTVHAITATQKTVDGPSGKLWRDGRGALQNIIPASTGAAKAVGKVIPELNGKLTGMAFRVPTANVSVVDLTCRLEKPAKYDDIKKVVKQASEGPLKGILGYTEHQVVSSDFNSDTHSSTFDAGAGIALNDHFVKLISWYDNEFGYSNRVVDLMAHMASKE

Mucolipin-3 = molecular target: T3, Mucolipin-3 (Homo sapiens, UniProt Q8TDD5); experiment: Fluorescence counterscreen assay for […] agonists: dose response cell-based high-throughput screening assay to identify agonists of the transient receptor potential channel ML3 (TRPML3). [Related pubchem assays: 1424, 1448 ]; format: functional
T3 sequence (Q8TDD5 whole entry): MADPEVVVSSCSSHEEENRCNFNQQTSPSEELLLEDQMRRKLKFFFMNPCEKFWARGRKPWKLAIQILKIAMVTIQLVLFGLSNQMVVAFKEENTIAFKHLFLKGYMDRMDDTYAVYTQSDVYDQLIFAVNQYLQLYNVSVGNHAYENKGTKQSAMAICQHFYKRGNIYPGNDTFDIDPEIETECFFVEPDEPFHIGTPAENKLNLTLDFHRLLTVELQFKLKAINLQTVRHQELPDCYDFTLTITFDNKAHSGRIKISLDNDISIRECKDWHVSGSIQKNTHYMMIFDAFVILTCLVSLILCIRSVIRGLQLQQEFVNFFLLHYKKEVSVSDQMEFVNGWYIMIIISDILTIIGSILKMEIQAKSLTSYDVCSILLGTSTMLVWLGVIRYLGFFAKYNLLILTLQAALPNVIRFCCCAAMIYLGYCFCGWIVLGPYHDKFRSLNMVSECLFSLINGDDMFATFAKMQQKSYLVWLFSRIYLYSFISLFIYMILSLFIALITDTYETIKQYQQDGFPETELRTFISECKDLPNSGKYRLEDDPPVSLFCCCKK

Ion channel NompC = Ion channel NompC (Danio rerio, UniProt Q7T1G6); experiment: Dose response cell-based high-throughput screening assay for agonists of the transient receptor potential channel N1 (TRPN1). [Related pubchem assays (depositor defined):AID1424, AID1448]; format: functional
Sequence of Ion channel NompC (Q7T1G6 whole entry): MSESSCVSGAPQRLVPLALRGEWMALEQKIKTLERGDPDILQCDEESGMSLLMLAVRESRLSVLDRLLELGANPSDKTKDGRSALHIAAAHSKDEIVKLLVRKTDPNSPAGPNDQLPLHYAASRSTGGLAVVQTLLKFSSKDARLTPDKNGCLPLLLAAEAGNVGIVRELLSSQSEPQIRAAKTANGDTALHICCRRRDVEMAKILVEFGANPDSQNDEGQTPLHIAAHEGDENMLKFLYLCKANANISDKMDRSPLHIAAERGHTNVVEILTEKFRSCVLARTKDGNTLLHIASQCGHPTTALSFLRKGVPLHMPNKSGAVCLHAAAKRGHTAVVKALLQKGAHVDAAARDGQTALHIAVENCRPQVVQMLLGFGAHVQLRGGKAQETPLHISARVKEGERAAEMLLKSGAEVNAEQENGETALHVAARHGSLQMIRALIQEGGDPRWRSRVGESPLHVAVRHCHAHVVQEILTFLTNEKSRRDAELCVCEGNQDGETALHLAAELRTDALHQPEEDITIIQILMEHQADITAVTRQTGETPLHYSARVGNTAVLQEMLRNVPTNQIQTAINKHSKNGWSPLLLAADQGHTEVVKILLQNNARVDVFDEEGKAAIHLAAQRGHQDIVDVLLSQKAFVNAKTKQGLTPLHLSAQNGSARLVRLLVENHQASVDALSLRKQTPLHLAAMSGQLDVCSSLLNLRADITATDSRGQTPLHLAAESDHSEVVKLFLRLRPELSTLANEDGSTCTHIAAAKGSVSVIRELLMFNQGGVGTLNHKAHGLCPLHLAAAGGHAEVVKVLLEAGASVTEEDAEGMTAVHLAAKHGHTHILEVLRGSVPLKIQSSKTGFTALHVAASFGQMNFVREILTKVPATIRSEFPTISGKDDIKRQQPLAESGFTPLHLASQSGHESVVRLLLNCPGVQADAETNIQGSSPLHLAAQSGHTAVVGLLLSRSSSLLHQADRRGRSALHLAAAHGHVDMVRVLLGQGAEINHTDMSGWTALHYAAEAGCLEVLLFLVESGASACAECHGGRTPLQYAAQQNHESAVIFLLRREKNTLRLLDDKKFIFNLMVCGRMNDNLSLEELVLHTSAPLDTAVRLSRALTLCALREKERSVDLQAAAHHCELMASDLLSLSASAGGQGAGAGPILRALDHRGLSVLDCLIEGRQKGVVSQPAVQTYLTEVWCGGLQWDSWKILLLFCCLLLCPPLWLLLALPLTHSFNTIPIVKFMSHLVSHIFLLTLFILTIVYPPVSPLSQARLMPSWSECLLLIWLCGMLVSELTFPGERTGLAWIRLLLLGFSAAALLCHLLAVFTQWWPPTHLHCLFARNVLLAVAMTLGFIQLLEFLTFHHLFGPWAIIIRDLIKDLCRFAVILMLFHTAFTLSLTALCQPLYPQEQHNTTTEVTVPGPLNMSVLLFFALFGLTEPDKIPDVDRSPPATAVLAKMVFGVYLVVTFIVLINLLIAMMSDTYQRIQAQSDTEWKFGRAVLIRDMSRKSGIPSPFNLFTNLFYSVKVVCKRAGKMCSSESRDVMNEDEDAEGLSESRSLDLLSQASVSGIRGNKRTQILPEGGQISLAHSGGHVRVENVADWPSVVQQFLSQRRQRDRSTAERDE

T-cell = experiment: loss of vesicle association with mouse CD8+ T cells – mouse 2C CD8+ T cells, flow cytometry, dose response (AID 485284); format: functional
[4] = Luminescence Cell-Based Dose Retest to Confirm Inhibitors of Cancer Stem Cells. [Related pubchem assays (depositor defined):AID2717, AID2721]; format: functional; settings: Homo sapiens
X-box-binding protein 1 = X-box-binding protein 1 (Homo sapiens, UniProt P17861); format: functional, Cricetulus griseus;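 further: confirmatory dose-response counter-screen serving a CHOP assay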
Sequence of X-box-binding protein 1 (P17861 whole entry): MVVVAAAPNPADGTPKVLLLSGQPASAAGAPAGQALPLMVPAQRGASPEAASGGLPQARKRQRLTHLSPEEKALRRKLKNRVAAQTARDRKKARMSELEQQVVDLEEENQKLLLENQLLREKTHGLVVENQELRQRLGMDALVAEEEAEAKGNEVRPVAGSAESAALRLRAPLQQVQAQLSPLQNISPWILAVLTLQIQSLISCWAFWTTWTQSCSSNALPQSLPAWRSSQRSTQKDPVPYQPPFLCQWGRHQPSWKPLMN

[5] = molecular target: DNA damage-inducible transcript 3 protein (Mus musculus, UniProt P35639); format: functional, Cricetulus griseus
Sequence of DNA damage-inducible transcript 3 protein (P35639 whole entry): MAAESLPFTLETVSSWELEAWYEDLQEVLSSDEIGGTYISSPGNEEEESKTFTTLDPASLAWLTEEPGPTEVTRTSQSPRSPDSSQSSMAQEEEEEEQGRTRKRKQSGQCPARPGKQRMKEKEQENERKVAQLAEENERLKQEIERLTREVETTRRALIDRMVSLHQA

[6] = THP-1 cell cytotoxicity, dose response, cytotoxicity control for non-replicating M. tuberculosis project (AID 489025); format: functional
[7] = molecular target: T4, Heat shock factor protein 1 (Mus musculus, UniProt P38532); experiment: decrease of HSF1-responsive luciferase luminescence – cell-based, NIH3T3, dose retest, confirmation (AID 2382); format: functional;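 further: NIH3T3 fibroblasts with HSF1-driven luciferase reporter stressed by proteasome inhibitor MG132; luminescence from HSF1-driven luciferase expression after 8 hours of MG132 stress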
T4 sequence (P38532 whole entry): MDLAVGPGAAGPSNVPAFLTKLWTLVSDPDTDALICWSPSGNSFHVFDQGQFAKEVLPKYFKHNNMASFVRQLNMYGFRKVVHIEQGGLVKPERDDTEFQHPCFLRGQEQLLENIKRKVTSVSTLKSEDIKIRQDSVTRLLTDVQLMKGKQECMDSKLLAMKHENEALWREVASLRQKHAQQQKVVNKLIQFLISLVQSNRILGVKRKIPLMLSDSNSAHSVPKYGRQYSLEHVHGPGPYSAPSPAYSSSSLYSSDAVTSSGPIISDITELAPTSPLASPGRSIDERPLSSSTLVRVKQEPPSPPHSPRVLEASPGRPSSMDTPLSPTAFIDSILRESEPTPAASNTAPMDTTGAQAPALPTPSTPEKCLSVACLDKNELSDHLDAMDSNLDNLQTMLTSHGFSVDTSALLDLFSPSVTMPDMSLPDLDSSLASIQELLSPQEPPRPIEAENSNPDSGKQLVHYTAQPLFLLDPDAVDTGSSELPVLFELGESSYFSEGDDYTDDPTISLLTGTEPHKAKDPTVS

[8] = viability of HCT116 lacking mutant beta-catenin – cell-based, human colon tumor, dose response (AID 1045); format: functional;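 further: HCT116 colon tumor cells with beta catenin knocked out; cells exposed to compound for 60 hours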
[9] = molecular target: T5, Sphingosine 1-phosphate receptor 4 (Homo sapiens, UniProt O95977); experiment: Fluorescence dose response cell-based high throughput screening assay for antagonists of the Sphingosine 1-Phosphate Receptor 4 (S1P4). [Related pubchem assays: 1524 (Confirmation in triplicates.), 1510 (Primary screen.)]; format: functional
T5 sequence (O95977 whole entry): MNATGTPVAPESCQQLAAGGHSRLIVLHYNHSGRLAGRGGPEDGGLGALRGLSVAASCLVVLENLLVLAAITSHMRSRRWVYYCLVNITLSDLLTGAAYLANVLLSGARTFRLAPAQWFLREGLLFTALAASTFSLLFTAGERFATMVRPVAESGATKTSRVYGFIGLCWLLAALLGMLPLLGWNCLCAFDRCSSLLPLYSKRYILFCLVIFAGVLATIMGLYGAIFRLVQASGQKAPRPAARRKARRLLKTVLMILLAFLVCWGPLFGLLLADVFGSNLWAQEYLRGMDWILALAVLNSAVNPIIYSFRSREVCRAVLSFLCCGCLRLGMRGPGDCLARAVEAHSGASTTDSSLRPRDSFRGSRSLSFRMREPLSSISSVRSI

Beta-galactosidase = Beta-galactosidase (Escherichia coli, UniProt Q8VNN2); experiment: detection-enzyme interference by beta-gal modulators – biochemical, E. coli enzyme, set 3, artefact control for CCR6 antagonist project, dose response (AID 504712); format: functional
Sequence of Beta-galactosidase (Q8VNN2 whole entry): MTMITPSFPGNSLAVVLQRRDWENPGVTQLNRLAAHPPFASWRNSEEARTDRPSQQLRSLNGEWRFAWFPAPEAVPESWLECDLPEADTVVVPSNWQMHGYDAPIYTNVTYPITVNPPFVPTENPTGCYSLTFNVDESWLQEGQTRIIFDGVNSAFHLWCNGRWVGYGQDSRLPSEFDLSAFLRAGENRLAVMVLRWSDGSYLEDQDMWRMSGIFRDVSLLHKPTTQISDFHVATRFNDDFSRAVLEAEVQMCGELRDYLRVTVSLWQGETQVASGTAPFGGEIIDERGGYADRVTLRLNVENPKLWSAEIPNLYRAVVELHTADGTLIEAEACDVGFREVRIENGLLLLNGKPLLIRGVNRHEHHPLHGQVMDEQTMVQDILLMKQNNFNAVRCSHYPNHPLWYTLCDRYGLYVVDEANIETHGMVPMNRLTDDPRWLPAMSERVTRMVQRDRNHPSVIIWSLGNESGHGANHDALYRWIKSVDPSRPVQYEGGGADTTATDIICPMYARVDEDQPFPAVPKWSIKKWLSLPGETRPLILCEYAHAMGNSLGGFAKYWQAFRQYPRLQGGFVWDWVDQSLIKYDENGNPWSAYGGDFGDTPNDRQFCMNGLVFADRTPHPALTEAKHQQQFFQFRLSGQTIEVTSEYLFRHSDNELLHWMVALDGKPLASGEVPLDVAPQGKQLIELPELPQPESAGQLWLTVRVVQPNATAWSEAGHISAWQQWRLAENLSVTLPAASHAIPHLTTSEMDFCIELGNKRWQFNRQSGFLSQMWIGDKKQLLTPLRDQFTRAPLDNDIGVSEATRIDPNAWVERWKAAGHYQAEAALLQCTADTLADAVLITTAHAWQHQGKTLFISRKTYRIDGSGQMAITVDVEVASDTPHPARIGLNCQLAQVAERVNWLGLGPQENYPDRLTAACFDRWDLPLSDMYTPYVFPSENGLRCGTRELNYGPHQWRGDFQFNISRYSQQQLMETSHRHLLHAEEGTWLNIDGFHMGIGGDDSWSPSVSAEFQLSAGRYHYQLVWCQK

HEK293 = experiment: EBV LMP1 TES2 canonical NF-kB signalling blockers – cell-based, HEK293, luciferase, cherry-pick, dose response (AID 588343); format: functional; settings: Homo sapiens
[10] = molecular target: Sphingosine 1-phosphate receptor 1 (Homo sapiens, UniProt P21453); format: functional;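 further: Tango beta-arrestin reporter U2OS cells stimulated with S1P near its EC80; inhibitor potency meaning antagonism of receptor activation by the natural agonist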
Sequence of Sphingosine 1-phosphate receptor 1 (P21453 whole entry): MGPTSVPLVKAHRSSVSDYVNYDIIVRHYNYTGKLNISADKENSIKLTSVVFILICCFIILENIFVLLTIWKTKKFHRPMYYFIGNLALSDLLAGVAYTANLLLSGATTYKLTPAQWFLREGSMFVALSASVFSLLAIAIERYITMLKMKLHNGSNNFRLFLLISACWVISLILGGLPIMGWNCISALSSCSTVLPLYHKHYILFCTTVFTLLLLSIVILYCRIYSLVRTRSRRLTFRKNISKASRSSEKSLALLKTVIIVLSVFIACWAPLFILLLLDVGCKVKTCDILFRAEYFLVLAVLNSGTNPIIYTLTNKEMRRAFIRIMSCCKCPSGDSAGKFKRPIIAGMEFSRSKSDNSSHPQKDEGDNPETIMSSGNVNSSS

[11] = Vero E6 cell cytotoxicity, dose response, cytotoxicity control for non-replicating M. tuberculosis project, secondary assay (AID 492998); format: functional, VeroE6; settings: Vero C1008
[12] = viability of PTEN-deleted HCT116 cells – cell-based, HCT116 PTEN knockout, dose response (AID 1047); format: functional;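 further: HCT116 colon tumor cells with PTEN knocked out; cells exposed to compound for 60 hours before readout; potency for loss of cell viability measured by luminescence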
cells = format: functional
Coagulation factor XII = molecular target: T6, Coagulation factor XII (Homo sapiens, UniProt P00748); experiment: Factor XIIa Dose Response Confirmation from Single Well HTS. [Related pubchem assays (depositor defined):AID701]; format: functional
T6 sequence (P00748 whole entry): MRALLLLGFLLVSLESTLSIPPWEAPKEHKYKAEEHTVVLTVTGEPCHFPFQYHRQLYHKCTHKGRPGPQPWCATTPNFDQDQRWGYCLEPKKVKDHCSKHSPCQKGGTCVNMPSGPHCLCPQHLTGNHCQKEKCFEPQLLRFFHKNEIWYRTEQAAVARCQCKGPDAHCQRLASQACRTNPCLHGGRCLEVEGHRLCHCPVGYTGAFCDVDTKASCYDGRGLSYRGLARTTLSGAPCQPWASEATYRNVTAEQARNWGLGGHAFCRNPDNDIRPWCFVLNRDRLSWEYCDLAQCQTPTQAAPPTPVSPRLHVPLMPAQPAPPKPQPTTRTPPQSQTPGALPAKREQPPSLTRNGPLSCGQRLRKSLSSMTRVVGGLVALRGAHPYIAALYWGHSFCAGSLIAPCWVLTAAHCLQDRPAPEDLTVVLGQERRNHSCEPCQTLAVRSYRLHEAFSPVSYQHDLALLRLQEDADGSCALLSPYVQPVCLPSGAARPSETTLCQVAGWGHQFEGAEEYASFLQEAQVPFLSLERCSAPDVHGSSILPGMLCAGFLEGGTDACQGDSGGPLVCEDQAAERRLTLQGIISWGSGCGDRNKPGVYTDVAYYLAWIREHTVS

Prothrombin = Prothrombin (Homo sapiens, UniProt P00734); experiment: Thrombin 1536 HTS Dose Response Confirmation. [Related pubchem assays: 1046 (Thrombin 1536 HTS; hits were confirmed in this assay)]; format: functional
[13] = molecular target: T5, Sphingosine 1-phosphate receptor 4; experiment: Late-stage fluorescence dose response cell-based assay to identify agonists of the Sphingosine 1-Phosphate Receptor 4 (S1P4): purchased compounds EC50. [Related pubchem assays (depositor defined):AID1509, AID1523, AID1563, AID1686, AID1701, AID1801]; format: functional
Vero [14] = experiment: cells; format: functional, cell-based; settings: Chlorocebus sabaeus
DLD-1 [15] = experiment: DLD-1 cell viability reduction – luminescence, round 1, cytotoxicity control for KLF5 inhibitor project, late-stage follow-up (AID 485338); format: functional, cell-based; settings: Homo sapiens
[16] = Luminescence Cell-Based Dose Response HTS to Identify Inhibitors of 5'UTR Stem-Loop Driven Prion Protein mRNA Translation in H4 Neuroglioblastoma Cells. [Related pubchem assays: 1827 (Project Summary), 1813 (Primary HTS)]; format: functional
[17] = luciferase reporter signal suppression in cells – H4 neuroglioma cells, luminescence, dose response (AID 1990); format: functional, cell-based
DLD-1 [18] = experiment: KLF5 protein lowering by immunoblot – western blot, chemiluminescence, DLD-1 cells, titration, orthogonal assay for KLF5 inhibitor project, late-stage follow-up (AID 485336); format: functional, cell-based; settings: Homo sapiens
[19] = Luminescence-based counterscreen assay for KLF5 inhibitors: dose response cell-based high throughput screening assay to identify cytotoxic compounds using the IEC-6 intestinal epithelial cell line. [Related pubchem assays: 1700 (Primary screen.), 1834 (Confirmation screen.), 1858 (Summary AID.), 1905 (Counterscreen.)]; format: functional
Vero [20] = experiment: cells; format: functional; settings: Chlorocebus sabaeus
Vero [21] = experiment: mammalian cell viability reduction – secondary assay, cytotoxicity control for West Nile virus antiviral project, dose response (AID 1650); format: functional; settings: Chlorocebus sabaeus
[22] = alpha-synuclein stem-loop luciferase translation blockers – H4 neuroglioma cells, luminescence, confirmation (AID 1988); format: functional, cell-based

CCOc1cc2[nH]c(=S)n(CC3CCCN3CC)c(=O)c2cc1OCC (stereo unspecified)
EC50 [1]: > 100 µM (inactive)

O=C(O)c1ccc(-c2ccccc2)[nH]1
IC50 [2]: > 100 µM (inactive) | IC50 [3]: > 100 µM (not active)

CCOC(=O)Cn1c(=O)oc2cc(S(=O)(=O)Nc3ccc(F)cc3)ccc21
EC50 (Mucolipin-3): > 29.9 µM (not active) | EC50 (Ion channel NompC): > 29.9 µM (inactive)

CC1(C)Cc2c(C#N)c(NC3CCCCC3)nc(-c3ccco3)c2CO1
EC50 (T-cell): 6.98 µM (active) | AC50 [4]: 5.72 µM (active)

O=C1c2cccc3c([N+](=O)[O-])ccc(c23)C(=O)N1c1ccccn1
Absolute IC50 (XBP1) (X-box-binding protein 1): 10 µM | Absolute IC50 (CHOP) [5]: 10 µM | CC50 [6]: 6.16 µM (active) | EC50 [7]: 12.8 µM (active) | EC50 [8]: 2.38 µM (active) | IC50 [9]: 0.75 µM (active) | IC50 (Beta-galactosidase): > 66.6 µM (inactive) | AC50 (HEK293): 5.7 µM (active) | IC50 [10]: 2.29 µM (active) | CC50 [11]: 12.3 µM (active) | EC50 [12]: 4.17 µM (active) | IC50 (cells): 20.3 µM (active)

COc1cccc(-c2nc3ccccc3c(=O)o2)c1
IC50 (Coagulation factor XII): > 50 µM (inconclusive) | IC50 (Prothrombin): 6.94 µM (active)

Cc1ccc(OCC(=O)Nc2cc(Cl)cc(Cl)c2)c([N+](=O)[O-])n1
EC50 [13]: 3.6 µM (active) and > 50 µM (inactive)

C[C@@H]1O[C@@H](O[C@H]2C[C@@H](O)[C@]3(CO)[C@H]4[C@H](O)C[C@]5(C)[C@@H](C6=CC(=O)OC6)CC[C@]5(O)[C@@H]4CC[C@]3(O)C2)[C@H](O)[C@H](O)[C@H]1O [OUABAIN]
IC50 (Vero [14]): < 0.05 µM (active) | IC50 (DLD-1 [15]): 0.0464 µM (active) | EC50 [16]: < 0.1 µM (active) | EC50 [17]: < 0.1 µM (active) | IC50 (DLD-1 [18]): 0.0297 µM (active) | IC50 [19]: > 39.8 µM (not active) | CC50 (Vero [20]): 0.13 µM (active) | CC50 (Vero [21]): 0.16 µM (active) | EC50 [22]: < 0.1 µM (active)
